Values of other authors, collected in patent publication US20100284993A1, “Enhancing the Efficacy of Anti-Infective Therapeutics” (priority 2007, published 2010).
Values belong to the compound of their own block, whether it stands above or below them.

Key:
[1] = in vivo
[2] = biological target: peptidyl prolyl isomerases of the protozoan parasite Trypanosoma cruzi (Trypanosoma cruzi, UniProt Q09734)
[3] = tested on: Pseudomonas aeruginosa
[4] = set-up: unit not given here; conditions: in vivo

peptidyl prolyl isomerases of the protozoan parasite Trypanosoma cruzi, sequence (Q09734 30-196): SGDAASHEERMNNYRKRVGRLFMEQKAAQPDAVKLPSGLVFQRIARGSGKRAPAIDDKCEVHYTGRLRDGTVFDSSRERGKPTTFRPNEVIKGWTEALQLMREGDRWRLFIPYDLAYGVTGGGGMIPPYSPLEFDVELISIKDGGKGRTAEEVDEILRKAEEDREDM

distribution into protected cellular compartments in the blood [1]: 72-98%
Structure (SMILES): C=CC[C@@H]1/C=C(\C)C[C@H](C)C[C@H](OC)[C@H]2O[C@@](O)(C(=O)C(=O)N3CCCC[C@H]3C(=O)O[C@H](/C(C)=C/[C@@H]3CC[C@@H](O)[C@H](OC)C3)[C@H](C)[C@@H](O)CC1=O)[C@H](C)C[C@@H]2OC [FK506]

Structure (SMILES): CC[C@@H]1/C=C(\C)[C@@H](O)[C@H](C)C[C@H](OC)[C@H]2O[C@@](O)(C(=O)C(=O)N3CCCC[C@H]3C(=O)O[C@H](/C(C)=C/[C@@H]3CC[C@@H](O)[C@H](OC)C3)[C@H](C)[C@@H](O)CC1=O)[C@H](C)C[C@@H]2OC [L-685,818]
binding preference for T. cruzi peptidyl prolyl isomerases over human FKBP [2]: preferentially binds

half life [4]: four
Structure (SMILES): C[C@@H](O)[C@H]1C(=O)N2C(C(=O)O)=C(S[C@@H]3CN[C@H](C(=O)Nc4cccc(C(=O)O)c4)C3)[C@H](C)[C@H]12 [ertapenem]
effectiveness against Pseudomonas aeruginosa [3]: not effective

elimination half life [4]: one
Structure (SMILES): C[C@@H](O)[C@H]1C(=O)N2C(C(=O)O)=C(S[C@@H]3CN[C@H](C(=O)N(C)C)C3)[C@H](C)[C@H]12 [meropenem]
